According to patent US8110703B2, “Retinoid derivative and pharmaceutical composition and use thereof” (Anhui Medical University, priority 2008, dated 2012):

Experiments:
Assay type in all cases: cell-based
A549 lung cancer cells = test: MTT cell growth and proliferation experiment, A549; design: key to Inhibition Rate: (control OD570 − test OD570)/control OD570, as fraction; settings: 3 d; for OD Value (x ± s): A549, MTT OD 570 nm; for Inhibition Rate: A549, MTT, given as fraction
Procedure: (§1) 1.1 Reagents 12 retinoic acid derivatives with the final concentrations of 1 ug/ml, 5 ug/ml and 10 ug/ml are synthesized by the Pharmaceutical College of Anhui Medical University using DMSO and anhydrous ethanol, separately packaged for storage at −20° C. and kept out of the light when used, and the final concentration of DMSO is less than 0.1%. MTT is purchased from Sigma Corp. The Coulter DNA detection kit is presented by the Central Lab of Anhui Provincial Hospital. AFP and γ-GT are provided by the Clinical Lab of No. 105 Hospital of PLA. Apoptosis-Hoechst staining kit is purchased from Beyotime Company.
(§2) 1.2 Cell Culture A549, and HpeG2 cells are stored by our lab. Cell growth condition: DMEM (from GIBICO Company) culture solution is added with 10% of calf serum (purchased from the Hangzhou Sijiqing Biological Engineering Material Co., Ltd.) to culture in a cell culture incubator (37° C., 5% CO2) with saturated humidity.
(§3) 1.3 Cell Growth and Proliferation Experiments MTT process is used. Cells in the logarithmic phase are picked and seeded on a 96-hole culture board with a cell concentration of 5×10^7/L. Each hole of the board is 200 ul. The next day after the adherence, the original solution is discarded, and the culture solution is added. The cells are divided into 1 ug/ml retinoic acid derivative groups, 5 ug/ml retinoic acid derivative groups, 10 ug/ml retinoic acid derivative groups, blank control groups, cell control groups, solvent control groups (1‰ DMSO and anhydrous ethanol) (17 in total) according to the concentrations thereof, incubated for 3d, added with MTT (5 g/L) of 20 ul/hole for incubation at 37° C. for 4 h. The original solution is carefully discarded and dried, and DMSO of 20 ul/hole is added to dissolve crystals, followed by vibrating for 10 min and determining the OD value at 570 nm. Each concentration is corresponding to 5 holes, and each group calculates the average of 3 experiments to calculate the inhibition rate to the cell growth according to the optical density (OD) average of each hole in each group and the following equation: inhibition rate %=(control hole OD570−experimental hole OD570)/control hole OD5700*100%. The process above is repeated for three times. The second experiment takes the maximum concentration (10 […]) for culture respectively for 1, 2, 3 and 7 days and repeat for three times.

liver cancer HepG2 cells = test: MTT cell growth and proliferation experiment, HepG2; design: key to Inhibition Rate: (control OD570 − test OD570)/control OD570, as fraction; settings: 3 d; for OD Value (x ± s): HepG2, MTT OD 570 nm; for Inhibition Rate: HepG2, MTT, fraction
Procedure: as §1, §2, §3

K562 cells = test: Cell cycle analysis by flow cytometer, K562; design: S %: dose or concentration left out as unconfirmed; settings: 72 h
Procedure: (§4) Retinoic acid derivatives and fenretinide are prepared as a storage solution of 10 mg/mL by anhydrous ethanol and stored at […] and kept out of light.
(§5) NB4 cells and K562 cells are inoculated with an initial concentration of 2*10^5/ml in the RPMI1640 culture solution having 10% of calf serum (FBS), 100 u/ml of penicillin, 100 Lg/ml of streptomycin and 2 mmol/L of glutamine for suspension culture (37° C., 5% CO2). Change the solution every 2-3 days.
(§6) For the cells above acted by the retinoic acid derivatives and fenretinide ([…]) for 72 h, about 10^6 of them are collected, washed by PBS twice, fixed by 70% of cold ethanol over 24 h, washed by PBS twice, added with 5 ug/ml of propidium iodide for staining and detected by a flow cytometer from which the data are analyzed and processed by the multi-cycle software.

NB4 cells = test: Cell cycle analysis by flow cytometer, NB4; design: S %: dose or concentration left out as unconfirmed; settings: 72 h
Procedure: as §4, §5, §6

SMILES	OD Value (x ± s) (A549 lung cancer cells; 1 ug/ml, solvent ethanol)	OD Value (x ± s) (A549 lung cancer cells; 5 ug/ml, solvent ethanol)	OD Value (x ± s) (A549 lung cancer cells; 10 ug/ml, solvent ethanol)	Inhibition Rate (A549 lung cancer cells; 1 ug/ml, solvent ethanol)	Inhibition Rate (A549 lung cancer cells; 5 ug/ml, solvent ethanol)	Inhibition Rate (A549 lung cancer cells; 10 ug/ml, solvent ethanol)	OD Value (x ± s) (liver cancer HepG2 cells; 1 ug/ml, solvent ethanol)	OD Value (x ± s) (liver cancer HepG2 cells; 5 ug/ml, solvent ethanol)	OD Value (x ± s) (liver cancer HepG2 cells; 10 ug/ml, solvent ethanol)	Inhibition Rate (liver cancer HepG2 cells; 1 ug/ml, solvent ethanol)	Inhibition Rate (liver cancer HepG2 cells; 5 ug/ml, solvent ethanol)	Inhibition Rate (liver cancer HepG2 cells; 10 ug/ml, solvent ethanol)	G1 % (K562 cells)	G2 % (K562 cells)	S % (K562 cells)	OD Value (x ± s) (A549 lung cancer cells; 1 ug/ml, solvent DMSO (D))	OD Value (x ± s) (A549 lung cancer cells; 5 ug/ml, solvent DMSO (D))	G1 % (NB4 cells)	G2 % (NB4 cells)	S % (NB4 cells)	other results
CC1=C(/C=C/C(C)=C/C=C/C(C)=C/C(=O)Oc2ccc(C(F)(F)F)cc2)C(C)(C)CCC1 [Example 2a-01, (4-trifluoromethylphenyl)-(all-trans)-3,7-dimethyl-9-(2,6,6-trimethyl-1-cyclohexen-1-yl)-2,4,6,8-nonatetraenoate]	1.878 ± 0.158	1.487 ± 0.175	1.458 ± 0.066	−0.006	0.203	0.219	1.38 ± 0.56	1.31 ± 0.57	1.30 ± 0.55	0.18	0.23	0.24	36.1%	12.5%	51.4%						
CC1=C(/C=C/C(C)=C/C=C/C(C)=C/C(=O)Oc2cccc(C(F)(F)F)c2)C(C)(C)CCC1 [Example 2a-02, (3-trifluoromethylphenyl)-(all-trans)-3,7-dimethyl-9-(2,6,6-trimethyl-1-cyclohexen-1-yl)-2,4,6,8-nonatetraenoate]							1.19 ± 0.52	1.13 ± 0.46	0.94 ± 0.49	0.29	0.33	0.45	35.4%	9.9%	54.6%	1.735 ± 0.048	1.621 ± 0.070				OD Value (x ± s) (A549 lung cancer cells; 10 ug/ml, solvent DMSO (D)): 1.580 ± 0.207; Inhibition Rate (A549 lung cancer cells; 1 ug/ml, solvent DMSO (D)): 0.070; Inhibition Rate (A549 lung cancer cells; 5 ug/ml, solvent DMSO (D)): 0.131; Inhibition Rate (A549 lung cancer cells; 10 ug/ml, solvent DMSO (D)): 0.144
CC1=C(/C=C/C(C)=C/C=C/C(C)=C/C(=O)Oc2ccc(N)c(C(F)(F)F)c2)C(C)(C)CCC1 [Example 4a-01, (4-amino-3-trifluoromethylphenyl)-(all-trans)-3,7-dimethyl-9-(2,6,6-trimethyl-1-cyclohexen-1-yl)-2,4,6,8-nonatetraenoate]													39.1%	6.9%	53.9%			59.15%	7.07%	33.78%	OD Value (x ± s) (liver cancer HepG2 cells; 1 ug/ml, solvent not given): 1.72 ± 0.44; OD Value (x ± s) (liver cancer HepG2 cells; 5 ug/ml, solvent not given): 1.63 ± 0.36; OD Value (x ± s) (liver cancer HepG2 cells; 10 ug/ml, solvent not given): 1.57 ± 0.30; Inhibition Rate (liver cancer HepG2 cells; 1 ug/ml, solvent not given): −0.009; Inhibition Rate (liver cancer HepG2 cells; 5 ug/ml, solvent not given): 0.04; Inhibition Rate (liver cancer HepG2 cells; 10 ug/ml, solvent not given): 0.07
CC1=C(/C=C/C(C)=C/C=C/C(C)=C/C(=O)Oc2cccc(OC(F)(F)F)c2)C(C)(C)CCC1 [Example 5a-02, (3-trifluoromethoxyphenyl)-(all-trans)-3,7-dimethyl-9-(2,6,6-trimethyl-1-cyclohexen-1-yl)-2,4,6,8-nonatetraenoate]							1.27 ± 0.44	1.13 ± 0.47	1.11 ± 0.61	0.25	0.33	0.35	38.2%	7.7%	54.2%	1.843 ± 0.179	1.817 ± 0.142	60.06%	4.91%	35.03%	OD Value (x ± s) (A549 lung cancer cells; 10 ug/ml, solvent DMSO (D)): 1.689 ± 0.154; Inhibition Rate (A549 lung cancer cells; 1 ug/ml, solvent DMSO (D)): 0.012; Inhibition Rate (A549 lung cancer cells; 5 ug/ml, solvent DMSO (D)): 0.027; Inhibition Rate (A549 lung cancer cells; 10 ug/ml, solvent DMSO (D)): 0.095
CC1=C(/C=C/C(C)=C/C=C/C(C)=C/C(=O)Oc2ccc(OC(F)(F)F)cc2)C(C)(C)CCC1 [Example 5a-01, (4-trifluoromethoxyphenyl)-(all-trans)-3,7-dimethyl-9-(2,6,6-trimethyl-1-cyclohexen-1-yl)-2,4,6,8-nonatetraenoate]	1.962 ± 0.225	1.754 ± 0.138	1.732 ± 0.317	−0.051	0.060	0.072	1.57 ± 0.39	1.51 ± 0.30	1.49 ± 0.23	0.07	0.11	0.12	32.6%	12.5%	55.0%			59.28%	4.98%	35.74%	
